The source of these data is US20120251448A1, “Compounds for Use in the Detection of Neurodegenerative Diseases” (priority 2011, published 2012).

The target of one assay is α-synuclein aggregates (Homo sapiens, UniProt P37840). The assay is described as follows: in vitro competition binding assay with [3H] positive reference compound #1 on α-synuclein aggregates. On the procedure:
In order to assess relative binding affinities of the test compounds for aggregated α-synuclein, competition assays were set up with a radiolabeled molecule already known to bind to α-synuclein fibrils and non-radiolabeled test compounds. In order to induce its aggregation, α-synuclein was incubated in phosphate buffered saline (PBS, pH 7.4) at 37° C. for three days with shaking (1,400 rpm). Competitive binding assays were carried out in 12×75 mm borosilicate glass tubes. […] The mixture was incubated for 120 min at 37° C., and the bound and the free radioactivity were separated by vacuum filtration through Whatman GF/B filters using a Brandel M-24R cell harvester, followed by washing with PBS buffer three times. […] IC50 values were determined by a non-linear, least squares regression analysis.

The test system of assay [1] is amyloid-β peptide of Alzheimer's disease. Nature of the assay: binding affinity for amyloid-β peptide (data not shown).
Where [2] appears, read: competition against [3H] positive reference compound #1 (100-200 nM), 120 min at 37° C., PBS, Ki by Cheng-Prusoff from IC50.

Where two headings read alike, the source gives them in different places.

Regarding `Oc1ccc(-c2nc3cc(O)c(O)cc3o2)cc1O` [SA-54], affinity at α-synuclein aggregates (setting [2]) was put at a Ki of 1.64 µM.

`Oc1ccc(-c2nnc(-c3cc(O)c(O)cc3Br)o2)cc1O` [SA-55] displayed a Ki at α-synuclein aggregates of 0.37 µM. This counts as sub-micromolar.

On α-synuclein aggregates (setting [2]), `Oc1ccc(-c2nsc(-c3ccc(O)c(O)c3)n2)cc1O` [SA-57] displayed a Ki of 0.124 µM.

`Oc1ccc(-c2cc(-c3ccc(O)c(O)c3)c(-c3ccc(O)c(O)c3)s2)cc1O` [SA-61] returned a Ki at α-synuclein aggregates (setting [2]) of 3.1 µM.

`Oc1ccc(-c2cnc(-c3ccc(O)c(O)c3)s2)cc1O` [SA-64]: on α-synuclein aggregates, the Ki was determined as 0.089 µM. In addition, the “binding affinity for the amyloid-β peptide” value in assay [1] is “does not show significant binding affinity”.

Turning to `Oc1ccc(-c2nnc(-c3ccc(O)c(O)c3)o2)cc1O` [SA-67], affinity on α-synuclein aggregates (setting [2]) was put at a Ki of 0.466 µM.

Regarding `Oc1ccc(-c2cn(-c3ccc(O)c(O)c3)nn2)cc1O` [SA-68], at α-synuclein aggregates (setting [2]), the Ki was found to be 0.697 µM.

Compound `Oc1ccc(-c2cnc(-c3ccc(O)c(O)c3)o2)cc1O` [SA-70] displayed a Ki on α-synuclein aggregates (setting [2]) of 0.659 µM.
